Drawing on US9931324B2, “Indolizine derivatives and their use in neurodegenerative diseases” (Merck Patent GmbH, priority 2014, dated 2018), this text covers IC50 for three compounds.

Experiment [1] addresses T1, P2X7 (Homo sapiens, UniProt Q99572).
T1 sequence (Q99572 1-595): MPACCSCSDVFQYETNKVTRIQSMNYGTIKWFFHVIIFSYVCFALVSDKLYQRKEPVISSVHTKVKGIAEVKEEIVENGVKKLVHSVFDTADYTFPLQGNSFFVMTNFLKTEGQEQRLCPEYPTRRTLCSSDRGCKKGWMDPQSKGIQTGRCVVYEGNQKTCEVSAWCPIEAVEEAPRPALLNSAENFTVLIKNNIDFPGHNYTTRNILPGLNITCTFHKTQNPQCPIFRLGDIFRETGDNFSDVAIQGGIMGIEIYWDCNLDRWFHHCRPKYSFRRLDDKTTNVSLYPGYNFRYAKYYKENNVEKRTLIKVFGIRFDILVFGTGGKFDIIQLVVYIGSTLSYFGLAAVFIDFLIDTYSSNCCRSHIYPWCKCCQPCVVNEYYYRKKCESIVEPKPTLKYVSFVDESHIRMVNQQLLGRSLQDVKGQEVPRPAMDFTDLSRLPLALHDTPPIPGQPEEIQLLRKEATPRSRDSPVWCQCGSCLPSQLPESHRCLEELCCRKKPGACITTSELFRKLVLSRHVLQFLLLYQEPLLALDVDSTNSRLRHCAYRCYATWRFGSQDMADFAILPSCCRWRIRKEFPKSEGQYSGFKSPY
The experiment in a line: Pore permeation assay (YO PRO dye uptake, BzATP-induced). The experiment is classed as cell-based. Further details: expressed in transfected cells; host or cells: HEK293. Particulars: HEK293 transfected with human P2X7 receptor, BzATP 10 uM, read-out: hP2X7 IC50. The procedure, abridged:
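HEK293 cells overexpressing human P2X7 were plated overnight, then placed in low-divalent HEPES buffer pH 7.4 (0.1 mM CaCl2, 125 mM NaCl). Compounds (10 points from 2.5 μM) were preincubated for 20 min at room temperature. YO-PRO (1 μM) was added with BzATP (10 μM), and dye uptake was read by fluorescence after 30 min.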

In experiment [2] the target is T1, P2X7. The experiment in a line: IL-1β release assay in THP-1 cells (sandwich ELISA, BzATP-stimulated). The following applies: LPS primed, 0.8 mM BzATP, mature IL-1β release, read-out: hTHP-1/IL-ib IC50. Further details: endogenous in cells; host or cells: THP-1 cells (PMA-differentiated, LPS-primed). The experiment is classed as cell-based. Background: In an ELISA, binding on a coated surface is turned into a signal by an enzyme label.

In the case of `CC1CC(O)(CNC(=O)c2cc(C3CCOCC3)n3cccc(Cl)c23)CCC1(F)F` (stereo not drawn) [Compound 41, 8-chloro-N-((4,4-difluoro-1-hydroxy-3-methylcyclohexyl)methyl)-3-(tetrahydro-2H-pyran-4-yl)indolizine-1-carboxamide], the IC50 on P2X7 [1] was in the range of 101 to 500 nM; at P2X7 [2], 10 to 100 nM.

Take `COCCc1cc(C(=O)NC[C@@]2(O)CCC[C@@H](C)C2)c2c(C(F)(F)F)cccn12` [Compound 22, 3-(2-Methoxy-ethyl)-8-trifluoromethyl-indolizine-1-carboxylic Acid ((1R,3R)-1-hydroxy-3-methyl-cyclohexylmethyl)-amide]: the IC50 on P2X7 [1] and at P2X7 [2] was 10 to 100 nM throughout.

On to `O=C(NCC1CCC(F)(F)CC1)c1cc(C2CCCO2)n2cccc(Cl)c12` (stereo not drawn) [Compound 23, 8-Chloro-3-(tetrahydro-furan-2-yl)-indolizine-1-carboxylic Acid (4,4-difluoro-cyclohexyl methyl)-amide], for which the IC50 at P2X7 [1] and on P2X7 [2] was 10 to 100 nM each time.
